Measured values taken from US8119690B2, “Polyunsaturated fatty acid monoglycerides, derivatives, and uses thereof” (Centre de Recherche sur les Biotechnologies Marines, priority 2007, dated 2012).
Values belong to the compound of their own block, whether it stands above or below them.

Tests used:
[1] = human, in vivo
Procedure: Controlled amount of boiled pasta was eaten after the 4 h time point. An initial blood sample (400 μl) was collected using a lancet at a fingertip into heparin tubes followed by samples at 1, 2, 3, 4, 5, 6, 7 and 8 hour after ingestion. Plasma was separated and immediately analysed for fatty acid composition.
The relative bioavailability of fatty acids from composition 2 compared to fish oil is calculated with the formula:
The AUC (calculates area under the curve for concentration vs. time data) is calculated using linear trapezoidal rule. […] The relative bioavailability of compound 1 and compound 5 is calculated with the same formula:

TNF-α = assay: LPS-induced TNF-α release by THP-1 monocyte cells (ELISA); type: cell-based, human; settings: THP-1 cells, 100 ng/ml LPS, 4 hours; vehicle gives 400 pg/ml; composition 3 10 μg/ml, curcumin 5 μg/ml
Procedure: Composition 3 (comprising compounds 1 (11%) and 5 (89%)) at final concentration of 10 μg/ml, curcumin (5 μg/ml) and a 1:1 mixture of composition 3 (10 μg/ml) and curcumin (5 μg/ml) in DMSO (1%) was used for the in vitro assay. Composition 3 prepared according to the same procedure as previously described in Example 2)
The in vitro assay allows evaluation of the potential anti-inflammatory effects of compounds on the induced-release of pro-inflammatory mediator by monocyte cells. Typical human monocyte THP-1 cells, involved in inflammatory processes, are used in this assay. Measurement of pro-inflammatory mediator TNF-α is performed by ELISA (manufactured by R&D Systems) with artificial induction of pro-inflammatory agents by LPS (E. Coli O55:B5) during 4 hours. Known anti-inflammatory agent dexametazone was used as positive control.

[2] = system: BT-549 human breast cancer cell line; assay: in vitro cell viability assay (SRB), BT-549; type: cell-based; settings: BT-549, at 294 μg/ml, 72 hours, read-out: growth inhibition
Procedure: (§1) The cell viability assay is performed to measure the relative cell viability status of cancer cells upon exposure to test compounds in comparison to a positive control (etoposide) and a negative control (vehicule). Adherent cells growing in 96-well plates are exposed to test compounds for 3 days (72 hours). […] Test compounds (composition 1 comprising compounds 1, 5 and 6) as well as positive and negative controls were tested in parallel on the same culture plate. All conditions are tested in triplicate. […] Inhibition of 50% of cell growth compared to basal condition is the lower limit indicating a positive biological response (considered as a hit). After the incubation time, total protein content is quantified following staining with the anionic dye sulforhodamine B (SRB). The detection of […], is completed by a microplate reader. […] The amount of […] is directly proportional to the number of living cells in culture. […] Cells were trypsinized using 0.25% trypsine (w/v)/0.53 mM EDTA solution (Hyclone), counted and plated at densities between 1000 and 3000 cells per well in flat bottom 96-well clear plates (Becton Dickinson) in 100 μl of appropriate culture medium supplemented with fetal bovine serum (Hyclone). […] Absorbance was read at 515 nm using a 96-well plate Multiskan Spectrum […] (Thermo Electron Corporation). […]

[3] = system: A-549 human lung cancer cell line; assay: in vitro cell viability assay (SRB), A-549; type: cell-based; settings: A549, A-549, at 294 μg/ml, 72 hours, read-out: growth inhibition
Procedure: as §1

[4] = system: HCT-15 human colon cancer cell line; assay: in vitro cell viability assay (SRB), HCT-15; type: cell-based; settings: HCT-15, at 294 μg/ml, 72 hours, read-out: growth inhibition
Procedure: as §1

[5] = system: PC-3 human prostate cancer cell line; assay: in vitro cell viability assay (SRB), PC-3; type: cell-based; settings: PC-3, at 294 μg/ml, 72 hours, read-out: growth inhibition
Procedure: as §1

relative bioavailability compared to compound 5 [1]: 2.20
SMILES: CC/C=C\C/C=C\C/C=C\C/C=C\C/C=C\CCCCCC(=O)OCC(O)CO (stereo not shown) [compound 1]

SMILES: COc1cc(/C=C/C(=O)CC(=O)/C=C/c2ccc(O)c(OC)c2)ccc1O [curcumin]
TNF-α measured (TNF-α): 100 pg/mL

SMILES: C[C@@H]1C[C@H]2[C@@H]3CCC4=CC(=O)C=C[C@]4(C)[C@@]3(F)[C@@H](O)C[C@]2(C)[C@@]1(O)C(=O)CO [dexametazone]
TNF-α measured (TNF-α): 125 pg/mL

SMILES: COc1cc([C@@H]2c3cc4c(cc3[C@@H](O[C@@H]3O[C@@H]5CO[C@@H](C)O[C@H]5[C@H](O)[C@H]3O)[C@H]3COC(=O)[C@H]23)OCO4)cc(OC)c1O [etoposide]
inhibition at 294 µg/mL [2]: 100%
inhibition at 294 µg/mL [3]: 100%
inhibition at 294 µg/mL [4]: 100%
inhibition at 294 µg/mL [5]: 100%
